# Measurements as given in PubChem BioAssay (NCI).
# “And” between values parts separate entries of the source, which are not always exact repeats. Equal entries are not always repeated.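 Grown in 96-well plates, cells were treated for 48 hours with each compound at five concentrations. Insufficient inhibition: endpoint recorded as highest concentration tested. GI50 is the concentration that inhibits growth by half. TGI denotes the concentration required for complete inhibition of growth.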
# Assays:
# Assay in all cases: NCI-60 cell line screen, 48 h
# MCF7 breast = tested on: MCF7 breast
# HS 578T breast = tested on: HS 578T breast
# MDA-MB-435 = tested on: MDA-MB-435
# HOP-18 NSCLC = tested on: HOP-18 NSCLC
# DLD-1 colon = tested on: DLD-1 colon
# DMS 273 small cell lung = tested on: DMS 273 small cell lung
# MDA-N = tested on: MDA-N
SMILES,GI50 (MCF7 breast),TGI (MCF7 breast),GI50 (HS 578T breast),TGI (HS 578T breast),GI50 (MDA-MB-435),TGI (MDA-MB-435),TGI (HOP-18 NSCLC),TGI (DLD-1 colon),TGI (DMS 273 small cell lung),TGI (MDA-N),GI50 (DLD-1 colon),GI50 (DMS 273 small cell lung),GI50 (HOP-18 NSCLC)
Nc1cc(-c2ccc(Cl)cc2)nn1-c1nnc(/C=C/c2ccco2)c(=O)[nH]1,2.95 µM,26.1 µM,10.2 µM,> 64.3 µM,5.9 µM,> 100 µM,,,,,,,
COc1ccc(Nc2nccc(N3CCN(c4c5ccc(Cl)cc5nc5ccc(OC)cc45)CC3)n2)cc1,3.67 µM,> 100 µM,5.78 µM,> 100 µM,8.28 µM,> 100 µM,,,,,,,
CSc1ccc(N(C)c2nc(C)nc3c2CCC3)cc1,< 0.01 µM,> 100 µM,< 0.01 µM,> 100 µM,,,,,,,,,
CC1(C)CC(=O)C(CC2C(=O)c3ccccc3C2=O)C(=O)C1,,,,,,,> 100 µM,> 100 µM,> 100 µM,,,,
O=C(O)c1ccccc1C(=O)c1ccc2c(c1)Cc1ccccc1-2,,> 100 µM,,> 100 µM,,> 100 µM,,,,> 100 µM,,,
Cc1cc(C)n(C2=NS(=O)(=O)c3ccccc3N2C)n1,,> 100 µM,,> 100 µM,,> 100 µM,,,,> 100 µM,,,
CN1c2ccccc2SC2C(c3ccccc3)=NOC21 (stereo not drawn),,> 100 µM,,> 100 µM,,,,,,52.8 µM,,,
O=C(Cl)C1=C(c2ccccc2)C1c1ccccc1 (stereo not drawn),,> 100 µM,,> 100 µM,,> 100 µM,,,,> 100 µM,,,
COc1ccc(F)c(F)c1C(=O)c1cnc(NC2CCN(S(C)(=O)=O)CC2)nc1N,0.0674 µM and 0.0458 µM,> 100 µM,1.52 µM and 0.695 µM,6.12 µM and > 8.4 µM,0.419 µM and 0.309 µM,3.72 µM and > 4.89 µM,,,,,,,
O=C1c2ccccc2-c2c1c1ccccc1c(=O)n2CCNCCn1c2c(c3ccccc3c1=O)C(=O)c1ccccc1-2,> 25 µM,> 25 µM,> 25 µM,> 25 µM,> 25 µM,> 25 µM,,,,,,,
CC1c2ccccc2N=C2SC(=S)N3CCN=C3N21 (stereo not drawn),> 100 µM,> 100 µM,,,> 100 µM,> 100 µM,,,,,,,
O=C1/C(=C/c2ccc([N+](=O)[O-])cc2)COc2ccc(O)cc21,1.23 µM,2.8 µM,3.54 µM,> 100 µM,5.21 µM,29.7 µM,,,,,,,
COc1ccc(-c2cnoc2-c2cc(OC)c3c(c2)OCCO3)cc1,0.0304 µM,> 100 µM,0.0283 µM,11.7 µM,,,,,,,,,
O=C(c1cccs1)C1NO[N+]([O-])=C1c1cccs1 (stereo not drawn),4.84 µM,16.3 µM,2.82 µM,14.6 µM,5.29 µM,16.3 µM,,,,,,,
c1ccc(-c2nc(N3CCCNCC3)c3nc(-c4ccccc4)oc3n2)cc1,1.67 µM,3.34 µM,1.86 µM,3.94 µM,1.64 µM,3.08 µM,,,,,,,
[2H]c1nc(=Nc2cc(NC(=O)C=C)c(N(C)CCN(C)C)cc2OC)[nH]c(-c2cn(C([2H])([2H])[2H])c3ccccc23)c1[2H],1.39 µM,3.23 µM,2.59 µM,9.74 µM,1.62 µM,3.09 µM,,,,,,,
Cc1cccc(N=Nc2ccc(N=Nc3c(O)ccc4ccccc34)cc2C)c1,,> 100 µM,,> 100 µM,,> 100 µM,,,,,,,
N.N.N.N.N.O=S(=O)([O-])S(=O)(=O)[O-].[Co+3],,,,,,,,> 100 µM,> 100 µM,,> 100 µM,> 100 µM,
c1cnn2ncc(-c3ccnc(Nc4ccc5c(c4)OCCO5)n3)c2c1,0.0797 µM,> 25 µM,0.0747 µM,0.323 µM,0.0813 µM,0.516 µM,,,,,,,
O=C1/C(=C/c2cccc([N+](=O)[O-])c2)Sc2scc(-c3ccc([N+](=O)[O-])cc3)[n+]21,,> 100 µM,,,,37.5 µM,,,,> 100 µM,,,
CC(=O)[CH-]C(=O)c1ccccc1.CC(=O)[CH-]C(=O)c1ccccc1.CC1(C)OCC(C2OC3OC(C)(C)OC3C2[O-])O1.CC[O-].[Ti+4] (stereo not drawn),,,,,,,56.5 µM,24.7 µM,,,9.78 µM,,21.4 µM
O=[N+]([O-])c1ccc(-c2cc3c(Nc4ccc(Cl)c(C(F)(F)F)c4)ncnc3s2)cc1,0.982 µM,> 100 µM,,,2.24 µM,> 100 µM,,,,,,,
CC(=Nc1ccc(S(N)(=O)=O)cc1)c1c(O)[nH]c2ccccc12,> 17.5 µM,> 25 µM,> 25 µM,> 25 µM,> 25 µM,> 25 µM,,,,,,,

SMILES,GI50 (MCF7 breast),TGI (MCF7 breast),GI50 (HS 578T breast),TGI (HS 578T breast),GI50 (MDA-MB-435),TGI (MDA-MB-435),TGI (HOP-18 NSCLC),TGI (DLD-1 colon),TGI (DMS 273 small cell lung),TGI (MDA-N),GI50 (DLD-1 colon),GI50 (DMS 273 small cell lung),GI50 (HOP-18 NSCLC)
Cc1cc2c(cc1Cl)S/C(=C/C(=O)O)C(Nc1cccc3nsnc13)=NS2(=O)=O,32.7 µM,> 76.2 µM,30.5 µM,> 60.7 µM,56.2 µM,> 71 µM,,,,,,,
COc1ccc(C2=C(N3CCc4ccccc43)C(=O)NC2=O)cc1,> 25 µM,> 25 µM,> 20.9 µM,> 25 µM,> 25 µM,> 25 µM,,,,,,,
COc1cccc(COc2cc(-n3cnc4ccccc43)sc2C(N)=O)c1,1.08 µM,> 25 µM,> 17.7 µM,> 25 µM,1.3 µM,> 25 µM,,,,,,,
CCOc1ccc(Nc2c3ccccc3nc3ccccc23)cc1,0.318 µM and 0.297 µM,4.2 µM and 4.23 µM,1.23 µM and 0.29 µM,,0.0382 µM and 0.0574 µM,0.359 µM and 0.279 µM,,,,,,,
C/C1=C\CC[C@@](C)(O)[C@@H]2C[C@H](CC/C(C)=C/CC1)C1(CC1)C(=O)O2,66.9 µM,> 100 µM,22.1 µM,60 µM,16.5 µM,35.1 µM,,,,,,,
CCOC(=O)c1c(SCCN2CCOCC2)n(-c2ccccc2)c(=S)n(-c2ccccc2)c1=O,,41.5 µM,,87.4 µM,,> 100 µM,,,,> 100 µM,,,
O=C(NCCN1CCNCC1)c1ccc(Nc2nc3ccccc3c3occc23)cc1,30.2 µM,> 100 µM,14.3 µM,38.4 µM,3.1 µM,8.51 µM,,,,,,,
COc1ccc(C(=O)c2nc3ccccc3n2CC(=O)c2ccc(Cl)cc2)cc1,2.1 µM,> 100 µM,2.49 µM,12.4 µM,0.336 µM,1.79 µM,,,,,,,
CCOC(=O)N1CCN(CCCCCOc2ccccc2C2CCCCC2)CC1,3.2 µM,13.1 µM,12.8 µM,34.8 µM,3.88 µM,15.1 µM,,,,,,,
CC(C)Oc1ccc(C(=O)Cn2ccnc2)cc1-n1c(CN2CCN(C(=O)COc3ccc(Cl)cc3)CC2)nc2ccccc2c1=O,12 µM,35.5 µM,15.8 µM,46.6 µM,15.6 µM,33.6 µM,,,,,,,
COc1cc2nc(-c3ccc(C(F)(F)F)cc3)cc(OCCCN3CCCC3)c2cc1OC,1.12 µM,4.13 µM,2.48 µM,19.3 µM,1.15 µM,15.1 µM,,,,,,,
Cc1ccc(NC(=O)/C(Cc2nc3ccc([N+](=O)[O-])cc3[nH]c2=O)=N\NC(=O)C[n+]2ccccc2)c(C)c1,,> 100 µM,,> 100 µM,,> 100 µM,,,,> 100 µM,,,
CC(C)(C)c1ccc(OC2CCO2)cc1 (stereo not drawn),,,,,,,> 100 µM,,> 100 µM,,,,
CCN(CC)c1ccc(/C=C/C2=[N+](C)c3ccccc3C2(C)C)c(C)c1,0.0574 µM,1.62 µM,0.129 µM,16.5 µM,0.0653 µM,1.32 µM,,,,,,,
Cc1ccc(-n2nc(C(C)(C)C)cc2NC(=O)NCc2cc(F)ccc2Oc2ccc3c(cnn3CCO)c2)cc1,3.55 µM and 3.26 µM,> 10 µM and 51.7 µM,> 10 µM and 10.1 µM,> 100 µM,3.37 µM and 2.75 µM,> 62.5 µM,,,,,,,
CCn1c(-c2nonc2N)nc2ccncc21,> 25 µM,> 25 µM,> 25 µM,> 25 µM,> 25 µM,> 25 µM,,,,,,,
Cc1ccc(NC(=O)/C(Cc2cc(=O)oc3cc(O)ccc23)=N\NC(=O)C[N+](C)(C)C)cc1C,,> 100 µM,,> 100 µM,,> 100 µM,,,,> 100 µM,,,
O=C1c2cccc3cccc(c23)C(=O)N1O,,> 100 µM,,> 100 µM,,> 100 µM,,,,> 100 µM,,,
O=C(/C=C/c1cccc(O)c1)c1cccc(-n2cc(-c3ccc4ccccc4c3)[nH]c2=O)c1,0.471 µM,1.83 µM,2.01 µM,5.9 µM,1.71 µM,6.31 µM,,,,,,,
COC(=O)c1ccc2c(c1)C(=O)c1c-2n(CCCN=[N+]=[N-])c(=O)c2cc([N+](=O)[O-])ccc12,> 100 µM,> 100 µM,42.6 µM,> 100 µM,> 100 µM,> 100 µM,,,,,,,
CC(C)[O-].CC(C)[O-].CN(CCN(C)Cc1cc(F)cc(F)c1[O-])Cc1cc(F)cc(F)c1[O-].[Ti+4],0.687 µM,2.78 µM,1.62 µM,6.22 µM,0.585 µM,2.1 µM,,,,,,,
OCc1ccc(N2CCOCC2)cc1Cl,15.8 µM,> 100 µM,> 100 µM,> 100 µM,> 100 µM,> 100 µM,,,,,,,
CCCCCCCCCCCCCC[n+]1cccc(C(N)=O)c1,2.62 µM,11.4 µM,2.64 µM,10.3 µM,1.5 µM,3.24 µM,,,,,,,
